What all share (format): cell-based
Assay [1] relates to SMN2 mRNA. The assay is described as follows: RT-qPCR splicing assay, gene panel, SMN2 canonical junction (CJ) mRNA. Conditions: Homo sapiens; decrease in CJ mRNA levels; larger panel of genes; Table 3; read-out: SMN2 CJ IC50. The gist of the method: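 A673 (DMEM/10% FBS) or K562 (IMDM/10% FBS) cells were treated 24 h at 37 °C with an 11-point 3-fold dilution series, top final 10 uM, DMSO ≤0.25%. Lysates underwent one-step RT-qPCR for the canonical-junction isoform with GAPDH, GUSB or PPIA as housekeeper. ΔΔCt versus DMSO was converted to RQ (2^−ΔΔCt), then to percent response.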

In assay [2] the test system is HTT mRNA. Briefly: RT-qPCR splicing assay, HTT canonical (CJ) and alternative (AJ) junction mRNA. Conditions: Homo sapiens; for IC50: read-out: HTT CJ IC50; for AC50: increase in alternative junction mRNA, read-out: HTT AJ AC50. In outline: (§1)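 Splice-junction mRNAs (CJ, AJ) measured by TaqMan one-step RT-qPCR on cell lysates, using PPIA as reference for adherent A673 and GAPDH or GUSB for K562. Cells exposed for 24 h to 11 threefold concentrations up to 10 uM final, with DMSO at or below 0.25%.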
On the technique in general: Real-time PCR tracks product formation cycle by cycle.

Assay [3] has as its system MYB mRNA. The assay is described as follows: RT-qPCR splicing assay, MYB canonical (CJ) and alternative (AJ) junction mRNA. Conditions: Homo sapiens; for IC50: read-out: MYB CJ IC50; for AC50: increase in alternative junction mRNA, read-out: MYB AJ AC50. In outline: as §1
Where [4] appears, read: decrease in CJ mRNA levels, larger panel of genes, Table 3.
[5] abbreviates: decrease in canonical junction mRNA, A673 or K562 cells, 24 hours treatment, Table 2.
[6] abbreviates: A673 or K562 cells, 24 hours treatment, Table 2.

Like-named read-outs stand apart in the source and are kept apart here.

Take `Cc1cn2nc(-c3cc(F)c4nn(C5CCNCC5F)cc4c3)cc(C)c2n1` (centres unmarked) [Compound 166, 6-[7-fluoro-2-(3-fluoro-4-piperidyl)indazol-5-yl]-2,8-dimethyl-imidazo [1,2-b]pyridazine]: the IC50 in assay [1] is less than 100 nM; in assay [2] (setting [4]), less than 0.1 µM; in assay [2] (setting [5]) it was less than 0.1 µM; in assay [3] (setting [4]) it was 100 to 1000 nM; in assay [3] (setting [5]) it was 100 to 1000 nM. Moreover, the half-maximal activity concentration (AC50) in assay [2] (setting [6]) is less than 100 nM; in assay [3] (setting [6]), 100 to 1000 nM.

With `Cc1cc(-n2cc3cc(N4CCNCC4)cc(F)c3n2)cc2cn(C)nc12` [Compound 117, 2-(2,7-dimethylindazol-5-yl)-7-fluoro-5-piperazin-1-yl-indazole], the IC50 in assay [1] is 100 to 1000 nM; in assay [2] (setting [4]), greater than 10 µM; in assay [2] (setting [5]) it was greater than 10 µM; in assay [3] (setting [4]) it was greater than 10000 nM; in assay [3] (setting [5]) it was greater than 10000 nM. Further, the AC50 in assay [2] (setting [6]) and in assay [3] (setting [6]) was 1000 to 10000 nM throughout.

By IC50 is commonly meant the point on the concentration scale where inhibition reaches its midpoint. By AC50 is commonly meant the concentration giving half of the maximal activity seen.
